# Experimental data as given in publication PMC6325200, “Effects of Microplate Type and Broth Additives on Microdilution MIC Susceptibility Assays” (Antimicrobial Agents and Chemotherapy, 2018).
# Where a SMILES comes first, the peptide text is derived from it. Bridges are numbered along the chain shown (N, C = ends). [ ]: non-standard residue; d: D form. The star is where a group is joined. X1 = CC[C@H](C)CCCCC(=O)*; Dab = NCC[C@H](N)C(=O)O
# Tests used:
# over 200 strains = details: 0.002% polysorbate added; cited from earlier work
# From the text: Members of the lipopeptide polymyxin class of antibiotics (polymyxin B [compound 7a] and polymyxin E [or colistin, compound 7b]) are important last-line therapeutic agents against many multidrug-resistant Gram-negative bacteria ([27][–][31]). They consist of an N-terminal fatty acid side chain that is attached to a polycationic deca-peptide backbone (Fig. 1) with physicochemical properties similar to those of the lipoglycopeptides. These structural features confer amphipathicity, which is a key feature of many other cationic antimicrobial peptides (CAMPs) ([32][–][34]). As mentioned earlier, p ...
# E. coli = details: literature value; cited from earlier work
# E. coli ATCC 25922 = assay: microbe, parasite or virus in culture
# Experimental: (§1) A positive control of a row of just the bacteria and a negative control of only the medium were included for every plate tested.
# (§2) The compounds along with standard antibiotics were serially diluted 2-fold across the 96-well plates. […] A sample of each culture was then diluted 40-fold in fresh MH broth (in presence and absence of Tween) and incubated at 37°C for 2 to 3 h.
# For experiments in the presence of surfactant, 2% beractant (25 mg/ml) was added to the mid-log-phase cultures and mixed gently and added to all the 96-well plates. For experiments in the presence of serum, a mixture of 50% of human serum along with 50% MHB was prepared and used throughout the experiment.
# A. baumannii ATCC 19606 = assay: microbe, parasite or virus in culture; details: n = 2
# Experimental: as §1, §2
# K. pneumoniae ATCC 13883 = assay: microbe, parasite or virus in culture; details: n = 2
# Experimental: as §1, §2
# P. aeruginosa ATCC 10145 = assay: microbe, parasite or virus in culture; details: n = 2
# Experimental: as §1, §2
# [1] = literature values, reference given; cited from earlier work
# From the text: Other assay additives can affect MIC values. […] Plasma protein binding has been implicated as a major factor limiting the active free concentration of many clinically important antibiotics ([37][–][42]).
smiles,measurement,setting,value
"CC[C@H](C)CCCCC(=O)N[C@@H](CCN)C(=O)N[C@H](C(=O)N[C@@H](CCN)C(=O)N[C@H]1CCNC(=O)[C@H]([C@@H](C)O)NC(=O)[C@H](CCN)NC(=O)[C@H](CCN)NC(=O)[C@H](CC(C)C)NC(=O)[C@@H](Cc2ccccc2)NC(=O)[C@H](CCN)NC1=O)[C@@H](C)O [Polymyxin B, polymyxin B] (X1-[Dab]T[Dab][Dab][Dab][dF]L[Dab][Dab]T; lactam 4-C (inferred); N-terminus assumed)",more potent MICs with surfactant present,over 200 strains,4- to 8 fold
same,MIC (literature),E. coli,0.25–1 ([73]) µg/ml
same,MIC,"E. coli ATCC 25922; Corning NBS, MH + 2% LHB, 2% LS, n = 2",≤0.03 µg/mL
same,MIC,"E. coli ATCC 25922; Corning NBS, MH + 2% LHB, 50% HS, n = 2",≤0.03 µg/mL
same,MIC,"E. coli ATCC 25922; Corning NBS, MH + 2% LHB, no additive, n = 2",≤0.03 µg/mL
same,MIC,"E. coli ATCC 25922; Corning NBS, MH + T80, 2% LS, n = 2",≤0.03 µg/mL
same,MIC,"E. coli ATCC 25922; Corning NBS, MH + T80, 50% HS, n = 2",0.03 to 0.06 µg/mL
same,MIC,"E. coli ATCC 25922; Corning NBS, MH, 2% LS, n = 2",≤0.03 µg/mL
same,MIC,"E. coli ATCC 25922; Corning NBS, MH, 50% HS, n = 2",≤0.03 µg/mL
same,MIC,"E. coli ATCC 25922; Corning PS plate, MHB +0.002% T80, no further additive, n = 2",0.03 to 0.25 µg/mL
same,MIC,"E. coli ATCC 25922; Corning PS plate, MHB −T80, no additive, n = 2",0.06 µg/mL
same,MIC,"E. coli ATCC 25922; Corning PS, MH + 2% LHB, 2% LS, n = 2",0.06 µg/mL
same,MIC,"E. coli ATCC 25922; Corning PS, MH + 2% LHB, 50% HS, n = 2",0.03 to 0.06 µg/mL
same,MIC,"E. coli ATCC 25922; Corning PS, MH + 2% LHB, no additive, n = 2",2 to 8 µg/mL
same,MIC,"E. coli ATCC 25922; Corning PS, MH + T80, 2% LS, n = 2",0.06 to 0.125 µg/mL
same,MIC,"E. coli ATCC 25922; Corning PS, MH + T80, 50% HS, n = 2",0.03 to 0.06 µg/mL
same,MIC,"E. coli ATCC 25922; Corning PS, MH, 2% LS, n = 2",0.06 to 0.125 µg/mL
same,MIC,"E. coli ATCC 25922; Corning PS, MH, 50% HS, n = 2",≤0.03 µg/mL
same,MIC,"E. coli ATCC 25922; Corning TC plate, MHB +0.002% T80, no further additive, n = 2",2 µg/mL
same,MIC,"E. coli ATCC 25922; Corning TC plate, MHB −T80, no additive, n = 2",1 to 2 µg/mL
same,MIC,"E. coli ATCC 25922; Corning TC, MH + 2% LHB, 2% LS, n = 2",2 to 8 µg/mL
same,MIC,"E. coli ATCC 25922; Corning TC, MH + 2% LHB, 50% HS, n = 2",4 µg/mL
same,MIC,"E. coli ATCC 25922; Corning TC, MH + 2% LHB, no additive, n = 2",0.125 µg/mL
same,MIC,"E. coli ATCC 25922; Corning TC, MH + T80, 2% LS, n = 2",2 to 4 µg/mL
same,MIC,"E. coli ATCC 25922; Corning TC, MH + T80, 50% HS, n = 2",1 to 4 µg/mL
same,MIC,"E. coli ATCC 25922; Corning TC, MH, 2% LS, n = 2",4 µg/mL
same,MIC,"E. coli ATCC 25922; Corning TC, MH, 50% HS, n = 2",0.25 to 0.5 µg/mL
same,MIC,E. coli ATCC 25922; NBS plates,≤ 0.03 µg/mL
same,MIC,"E. coli ATCC 25922; Nunc PS plate, MHB +0.002% T80, n = 2",0.03 to 0.06 µg/mL
same,MIC,"E. coli ATCC 25922; Nunc PS plate, MHB −T80, n = 2",0.125 to 0.25 µg/mL
same,MIC,"E. coli ATCC 25922; Nunc U TC plate, MHB +0.002% T80, n = 2",2 to 4 µg/mL
same,MIC,"E. coli ATCC 25922; Nunc U TC plate, MHB −T80, n = 2",1 to 4 µg/mL
same,MIC,"E. coli ATCC 25922; Nunc flat TC plate, MHB +0.002% T80, n = 2",2 µg/mL
same,MIC,"E. coli ATCC 25922; Nunc flat TC plate, MHB −T80, n = 2",1 µg/mL
same,MIC,"E. coli ATCC 25922; Trek PS plate, MHB +0.002% T80, no further additive, n = 2",0.03 to 0.06 µg/mL
same,MIC,"E. coli ATCC 25922; Trek PS plate, MHB −T80, no additive, n = 2",0.06 to 0.125 µg/mL
same,MIC,"E. coli ATCC 25922; Trek PS, MH + 2% LHB, 2% LS, n = 2",≤0.03 µg/mL
same,MIC,"E. coli ATCC 25922; Trek PS, MH + 2% LHB, 50% HS, n = 2",≤0.03 µg/mL
same,MIC,"E. coli ATCC 25922; Trek PS, MH + 2% LHB, no additive, n = 2",0.03 to 0.25 µg/mL
same,MIC,"E. coli ATCC 25922; Trek PS, MH + T80, 2% LS, n = 2",0.03 to 0.06 µg/mL
same,MIC,"E. coli ATCC 25922; Trek PS, MH + T80, 50% HS, n = 2",0.03 to 0.125 µg/mL
same,MIC,"E. coli ATCC 25922; Trek PS, MH, 2% LS, n = 2",0.5 to 1 µg/mL
same,MIC,"E. coli ATCC 25922; Trek PS, MH, 50% HS, n = 2",≤0.03 µg/mL
same,MIC,"A. baumannii ATCC 19606; Corning NBS, MHB +T80",≤ 0.03 µg/mL
same,MIC,"A. baumannii ATCC 19606; Corning NBS, MHB -T80",≤ 0.03 µg/mL
same,MIC,"A. baumannii ATCC 19606; Corning PS, MHB +T80",≤ 0.03 µg/mL
same,MIC,"A. baumannii ATCC 19606; Corning PS, MHB -T80",0.06 to 0.125 µg/mL
same,MIC,"A. baumannii ATCC 19606; Corning TC, MHB +T80",2 to 4 µg/mL
same,MIC,"A. baumannii ATCC 19606; Corning TC, MHB -T80",0.5 to 1 µg/mL
same,MIC,"K. pneumoniae ATCC 13883; Corning NBS, MHB +T80",≤ 0.03 µg/mL
same,MIC,"K. pneumoniae ATCC 13883; Corning NBS, MHB -T80",0.03 to 0.125 µg/mL
same,MIC,"K. pneumoniae ATCC 13883; Corning PS, MHB +T80",0.03 to 0.06 µg/mL
same,MIC,"K. pneumoniae ATCC 13883; Corning PS, MHB -T80",0.06 to 0.25 µg/mL
same,MIC,"K. pneumoniae ATCC 13883; Corning TC, MHB +T80",1 µg/mL
same,MIC,"K. pneumoniae ATCC 13883; Corning TC, MHB -T80",1 µg/mL
same,MIC,"P. aeruginosa ATCC 10145; Corning NBS, MHB +T80",0.03 to 0.125 µg/mL
same,MIC,"P. aeruginosa ATCC 10145; Corning NBS, MHB -T80",0.03 to 0.06 µg/mL
same,MIC,"P. aeruginosa ATCC 10145; Corning PS, MHB +T80",0.5 to 1 µg/mL
same,MIC,"P. aeruginosa ATCC 10145; Corning PS, MHB -T80",0.25 to 1 µg/mL
same,MIC,"P. aeruginosa ATCC 10145; Corning TC, MHB +T80",2 to 4 µg/mL
same,MIC,"P. aeruginosa ATCC 10145; Corning TC, MHB -T80",1 to 4 µg/mL
same,protein binding,[1],50 to 60%
